Assay results from patent publication US9763915B2, “Adjuvants in anti-cancer chemotherapy” (PharmOxaco SáRL, priority 2013, dated 2017).
Where “and” joins values, the source holds several entries; their conditions need not be identical. Equal entries are not always repeated.

Experiments:
rats [1] = settings: Brewer et al. 1994; cited from earlier work
dogs = settings: Brewer et al. 1994; cited from earlier work
rats [2] = experiment: Further testing in a group of rats (mortality); settings: 40 mg/kg/day
CD® rats = experiment: Two-week toxicity study in CD rats; assay type: in vivo
Method: As a bellwether, the toxicity of trioxane T7 has been evaluated and compared with that of artemether in CD® rats following two weeks of oral administration (gavage) and intramuscular injection, respectively. Trioxane T7 was administered at doses of 0, 15, 30, and 60 mg/kg/day in Lipomul® emulsion, while artemether was dosed at 0, 10, 20, and 40 mg/kg/day.

[3] = system: MDA-468 breast cancer cell line; experiment: Annexin V apoptosis assay, fast proliferating MDA-468 breast cancer cells; settings: MDA-468, 48 hours, vehicle baseline 13-18%
Text: (§2) The same experimental set-up was also utilized to test the synergistic capacity of trioxane T59 with imatinib.
(§3) The test read-out was the Annexin V apoptosis assay kit from Becton-Dickinson, which detects the presence of the Annexin V protein on the surface of cells undergoing apoptosis and positivity toward propidium iodide for dead cells.

[4] = system: MCF-7 breast cancer cell line; experiment: Annexin V apoptosis assay, poorly proliferating MCF-7 breast cancer cells; settings: MCF-7, 48 hours, vehicle baseline 13-18%
Text: as §2, §3

[5] = system: human Burkitt's lymphoma cell line (Raji); experiment: Annexin V apoptosis assay, Burkitt's lymphoma cell line Raji; assay type: cell-based; settings: 48 hours, 25 μM alone
Method: (§1) Next the cells were cultivated in the same way, but in the combined presence of dasatinib (25 μM) and the individual trioxanes T16, T45, and T7 in concentrations of 1.0 and 10 μM (see Tables below). As mentioned above, the Annexin V apoptosis assay was used to detect the Annexin V protein on cells undergoing apoptosis. Dead cells (post-apoptopic) were determined by positivity toward propidium iodide. The percentages of apoptopic, post-apoptopic cells, and their total are shown for each test. […] Synergy is noted as moderate (*), high (**), or exceptionally high (***).
Human Burkitt's Lymphoma (Raji)

[6] = system: human follicular lymphoma cell line (DoHH2); experiment: Annexin V apoptosis assay, follicular lymphoma cell line DoHH2; assay type: cell-based; settings: DoHH2, 48 hours, 25 μM alone
Method: as §1
Human Follicular Lymphoma (DoHH2)

In the case of `CO[C@H]1O[C@@H]2O[C@@]3(C)CC[C@H]4[C@H](C)CC[C@@H]([C@H]1C)[C@@]24OO3` [artemether], the reported toxicity (rats [1]) is given as “neurotoxicity”, the reported toxicity (dogs) is given as “neurotoxicity” and the mortality (rats [2]) is given as “killed most of the rats”. The toxic effects (CD® rats; two weeks intramuscular injection, 10, 20, 40 mg/kg/day) was “CNS excitability, neuronal chromatolysis, and gliosis in the brain stem” and the “toxic effects at mid-dose” value (CD® rats; two weeks intramuscular injection, mid-dose (of 10, 20, 40 mg/kg/day)) was “neurotoxic manifestations were observed, including hematoxicity and hepatotoxicity”.

For `Oc1ccc(C=Cc2cc(O)cc(O)c2)cc1` [Resveratrol, resveratrol], the “percentage of dead cells (dead+apoptotic)” value (“percentage of dead cells” for short) ([3]; 1 μM alone) was 11.30% and the “percentage of dead cells” value ([4]; 1 μM alone) was 16.05%.

With `Cc1nc(Nc2ncc(C(=O)Nc3c(C)cccc3Cl)s2)cc(N2CCN(CCO)CC2)n1` [Dasatinib, dasatinib] the “Apoptopic Cells, in %” value [5] was 7.9%, the “Post-apoptopic Cells, in %” value [5] was 15.18% and the “Total Dead Cells, in %” value ([5]; vehicle baseline 13-18%) was 23.15%. The “Apoptopic Cells, in %” value [6] was 4.58%, the “Post-apoptopic Cells, in %” value [6] was 11.76% and the “Total Dead Cells, in %” value ([6]; vehicle baseline 13-18%) was 16.34%.

In the case of `Cc1ccc(NC(=O)c2ccc(CN3CCN(C)CC3)cc2)cc1Nc1nccc(-c2cccnc2)n1` [Imatinib, imatinib], the “percentage of dead cells” value ([3]; 10 μM alone) is reported as 13.60% and 13.16% and the “percentage of dead cells” value ([4]; 10 μM alone) is reported as 14.05% and 14.15%.
